Test results: ChEMBL document CHEMBL1201862, “PubChem BioAssay data set” (2004)
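The compound was tested at five concentrations on cells cultured in 96-well plates, with a 48-hour exposure period. GI50 = concentration required for 50% inhibition of growth.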 Activity calls are given as the source filed them. Cut-off read from the data, not from the text of the source: active = GI50 up to about 1.1 µM and inactive = higher.

Assays:
Assay in all cases: NCI anticancer screen, dose series, 48 h
ACHN = system: ACHN
HCC 2998 = system: HCC 2998
DU-145 = system: DU-145
SNB-19 = system: SNB-19
NCI-H522 = system: NCI-H522
IGROV-1 = system: IGROV-1
COLO 205 = system: COLO 205
MDA-MB-231 = system: MDA-MB-231
HOP-62 = system: HOP-62
HL-60 = system: HL-60
A549 = system: A549
UACC-257 = system: UACC-257
SW-620 = system: SW-620
SNB-75 = system: SNB-75
K562 = system: K562
SK-MEL-5 = system: SK-MEL-5
OVCAR-3 = system: OVCAR-3
HT-29 = system: HT-29
TK-10 = system: TK-10
OVCAR-8 = system: OVCAR-8

SMILES | GI50 (ACHN) | GI50 (HCC 2998) | GI50 (DU-145) | GI50 (SNB-19) | GI50 (NCI-H522) | GI50 (IGROV-1) | GI50 (COLO 205) | GI50 (MDA-MB-231) | GI50 (HOP-62) | GI50 (HL-60) | GI50 (A549) | GI50 (UACC-257) | GI50 (SW-620) | GI50 (SNB-75) | GI50 (K562) | GI50 (SK-MEL-5) | GI50 (OVCAR-3) | GI50 (HT-29) | GI50 (TK-10) | GI50 (OVCAR-8)
O=C(O)C1CC=CCC1C(=O)Nc1cccc(O)c1 (configuration not stated) | > 100 µM (inactive) | > 100 µM (inactive) | > 100 µM (inactive) | > 100 µM (inactive) | > 100 µM (inactive) | > 100 µM (inactive) | > 100 µM (inactive) | > 100 µM (inactive) | > 100 µM (inactive) | > 100 µM (inactive) | > 100 µM (inactive) | > 100 µM (inactive) | > 100 µM (inactive) | > 100 µM (inactive) | > 100 µM (inactive) | > 100 µM (inactive) | > 100 µM (inactive) | > 100 µM (inactive) | > 100 µM (inactive) | > 100 µM (inactive)
Cc1ccc(O)c(-c2cc(-c3cccc(Br)c3)c(C#N)c(N)n2)c1 | 18.2 µM (inactive) | 23.3 µM (inactive) | 29.6 µM (inactive) | 19.3 µM (inactive) | 18.9 µM (inactive) | 11.7 µM (inactive) | 18.5 µM (inactive) | 20.4 µM (inactive) | 34.6 µM (inactive) | 30 µM (inactive) | 27.6 µM (inactive) | 20.8 µM (inactive) | 23.8 µM (inactive) | – | 21.8 µM (inactive) | 19.2 µM (inactive) | 27.6 µM (inactive) | 23.9 µM (inactive) | 18.2 µM (inactive) | 32.3 µM (inactive)
O=C1CSC(/C(=C\c2ccc(Cl)cc2)c2nc3ccccc3[nH]2)=N1 | 6.68 µM (inactive) | 3.43 µM (inactive) | 13.4 µM (inactive) | 19.2 µM (inactive) | 5.3 µM (inactive) | 10.1 µM (inactive) | 19.1 µM (inactive) | 12.7 µM (inactive) | 1.94 µM (inactive) | 26.5 µM (inactive) | 4.05 µM (inactive) | 16.2 µM (inactive) | 18.5 µM (inactive) | 12.3 µM (inactive) | 34.4 µM (inactive) | 12.1 µM (inactive) | 7.78 µM (inactive) | 21.7 µM (inactive) | 11.8 µM (inactive) | 7.91 µM (inactive)
COC(=O)NC(Nc1ccccn1)(C(F)(F)F)C(F)(F)F | > 100 µM (inactive) | > 100 µM (inactive) | > 100 µM (inactive) | > 100 µM (inactive) | > 100 µM (inactive) | > 100 µM (inactive) | – | > 100 µM (inactive) | > 100 µM (inactive) | > 100 µM (inactive) | > 100 µM (inactive) | > 100 µM (inactive) | > 100 µM (inactive) | > 100 µM (inactive) | > 100 µM (inactive) | > 100 µM (inactive) | > 100 µM (inactive) | > 100 µM (inactive) | > 100 µM (inactive) | > 100 µM (inactive)
O=C1Nc2ccc(S(=O)(=O)O)cc2/C1=C1/Nc2ccc(Br)cc2C1=O | > 100 µM (inactive) | > 100 µM (inactive) | > 100 µM (inactive) | > 100 µM (inactive) | > 100 µM (inactive) | 19.1 µM (inactive) | > 100 µM (inactive) | > 100 µM (inactive) | > 100 µM (inactive) | > 100 µM (inactive) | > 100 µM (inactive) | > 100 µM (inactive) | > 100 µM (inactive) | > 100 µM (inactive) | > 100 µM (inactive) | > 100 µM (inactive) | > 100 µM (inactive) | > 100 µM (inactive) | > 100 µM (inactive) | > 100 µM (inactive)
CCCCCCCSCC(O)COC(c1ccccc1)(c1ccccc1)c1ccccc1 (configuration not stated) | 25.5 µM (inactive) | 19.4 µM (inactive) | > 100 µM (inactive) | 76.6 µM (inactive) | 35.2 µM (inactive) | > 100 µM (inactive) | 39.8 µM (inactive) | > 100 µM (inactive) | > 100 µM (inactive) | 26.9 µM (inactive) | 26.7 µM (inactive) | 34.5 µM (inactive) | 78 µM (inactive) | – | 54.6 µM (inactive) | 23.6 µM (inactive) | 29.2 µM (inactive) | 19.7 µM (inactive) | 87.3 µM (inactive) | 61.8 µM (inactive)
COCn1c(C)c(C)c2c(=O)oc(N(C)C)nc21 | > 100 µM (inactive) | > 100 µM (inactive) | > 100 µM (inactive) | 67 µM (inactive) | > 100 µM (inactive) | > 100 µM (inactive) | > 100 µM (inactive) | > 100 µM (inactive) | > 100 µM (inactive) | > 100 µM (inactive) | > 100 µM (inactive) | > 100 µM (inactive) | > 100 µM (inactive) | > 100 µM (inactive) | > 100 µM (inactive) | > 100 µM (inactive) | – | > 100 µM (inactive) | > 100 µM (inactive) | > 100 µM (inactive)
CCOc1cc2c(cc1O)/C(=N\OC)C[C@@H]1[C@@H]2CC[C@]2(C)[C@@H](O)CC[C@@H]12 | 1.09 µM (active) | 1.25 µM (inactive) | 0.326 µM (active) | 2.11 µM (inactive) | 0.0288 µM (active) | 0.923 µM (active) | 16.3 µM (inactive) | 0.685 µM (active) | < 0.0461 µM (active) | 0.00548 µM (active) | 0.542 µM (active) | – | 0.212 µM (active) | 0.0219 µM (active) | 0.0596 µM (active) | < 0.0253 µM (active) | < 0.0205 µM (active) | 3.81 µM (inactive) | > 32.9 µM (inactive) | 0.217 µM (active)
O=C1CC2(CCC(O)(c3cccs3)C(C(=O)c3cccs3)C2)C(=O)c2ccccc2N1 (configuration not stated) | – | 38.5 µM (inactive) | 67.3 µM (inactive) | – | – | > 100 µM (inactive) | 33.7 µM (inactive) | > 100 µM (inactive) | > 100 µM (inactive) | 29.2 µM (inactive) | 95.7 µM (inactive) | > 100 µM (inactive) | > 100 µM (inactive) | 37.7 µM (inactive) | 40.8 µM (inactive) | 11.8 µM (inactive) | 63.8 µM (inactive) | 40.6 µM (inactive) | > 100 µM (inactive) | > 100 µM (inactive)
CC(NC(=O)C(N)Cc1ccc(O)cn1)C(=O)O (configuration not stated) | > 100 µM (inactive) | > 100 µM (inactive) | > 100 µM (inactive) | > 100 µM (inactive) | > 100 µM (inactive) | > 100 µM (inactive) | > 100 µM (inactive) | > 100 µM (inactive) | > 100 µM (inactive) | > 100 µM (inactive) | > 100 µM (inactive) | > 100 µM (inactive) | > 100 µM (inactive) | – | > 100 µM (inactive) | > 100 µM (inactive) | > 100 µM (inactive) | > 100 µM (inactive) | > 100 µM (inactive) | > 100 µM (inactive)
COc1cc([C@@H]2c3cc(O)c(OC)cc3C=C(C(N)=O)[C@H]2C(N)=O)ccc1O | > 100 µM (inactive) | > 100 µM (inactive) | > 100 µM (inactive) | > 100 µM (inactive) | > 100 µM (inactive) | > 100 µM (inactive) | > 100 µM (inactive) | > 100 µM (inactive) | > 100 µM (inactive) | > 100 µM (inactive) | > 100 µM (inactive) | > 100 µM (inactive) | > 100 µM (inactive) | > 100 µM (inactive) | > 100 µM (inactive) | > 100 µM (inactive) | > 100 µM (inactive) | > 100 µM (inactive) | – | > 100 µM (inactive)
O=C(Cn1c(C(=O)/C=C/c2ccc(Cl)cc2)nc2ccccc21)c1ccc(Cl)cc1 | 20.7 µM (inactive) | 14.4 µM (inactive) | 21.7 µM (inactive) | 20.7 µM (inactive) | – | 16.7 µM (inactive) | 16.5 µM (inactive) | 19.9 µM (inactive) | 16.4 µM (inactive) | 10.1 µM (inactive) | 21 µM (inactive) | 24.1 µM (inactive) | 11.4 µM (inactive) | – | 6.07 µM (inactive) | 14.8 µM (inactive) | 8.87 µM (inactive) | 15 µM (inactive) | 30.8 µM (inactive) | –
O=C(C[C@H](NC(=O)OCc1ccccc1)C(=O)NC1Cc2ccccc2OC1=O)OCc1ccccc1 (some centres not stated) | – | 15.9 µM (inactive) | 59.6 µM (inactive) | > 100 µM (inactive) | > 100 µM (inactive) | > 100 µM (inactive) | > 100 µM (inactive) | 26.7 µM (inactive) | > 100 µM (inactive) | > 10 µM (inactive) | – | – | – | > 100 µM (inactive) | 15.7 µM (inactive) | > 100 µM (inactive) | > 100 µM (inactive) | – | – | > 100 µM (inactive)
COc1cccc(/C=C2\SC(=S)N(/C=C3\C(=O)Oc4ccccc4C3=O)C2=O)c1O | 46 µM (inactive) | 28.8 µM (inactive) | 74.5 µM (inactive) | 41.9 µM (inactive) | 33.3 µM (inactive) | 59.2 µM (inactive) | 85.7 µM (inactive) | 33.2 µM (inactive) | 50.7 µM (inactive) | 41.2 µM (inactive) | 59.7 µM (inactive) | 68.2 µM (inactive) | 44.1 µM (inactive) | 19.8 µM (inactive) | 34.4 µM (inactive) | 35.8 µM (inactive) | 34.4 µM (inactive) | 78.3 µM (inactive) | – | 80 µM (inactive)
CN(Cc1cnc2nc(N)nc(N)c2n1)c1ccc(C(=O)NC(CCC(=O)O)C(=O)O)cc1C(F)(F)F (configuration not stated) | < 0.01 µM (active) | < 0.01 µM (active) | < 0.01 µM (active) | – | < 0.01 µM (active) | < 0.01 µM (active) | < 0.01 µM (active) | > 23.1 µM (inactive) | – | < 0.01 µM (active) | < 0.01 µM (active) | 25.8 µM (inactive) | < 0.01 µM (active) | > 100 µM (inactive) | < 0.01 µM (active) | < 0.01 µM (active) | – | < 0.01 µM (active) | > 78.3 µM (inactive) | < 0.01 µM (active)
